Reference: patent US20030155090A1, “Process for controlling microbial growth” (priority 2000, published 2003)

Legend:
Strain 3 = experiment: Survival of isolated bacteria in nutrient broth under a CO2 atmosphere at 45° C., colony count on agar plates; format: cell-based
Description: (§1) A set of representative bacterial strains was isolated from a white water sample from a Swedish recycled pulp mill. The sample originally yielded 70 bacterial strains which each represented a group of different bacteria, which grew under similar conditions. The strains were tested on different media and their oxygen demands were studied. The results gave an indication of eight main groups. […] Those three groups were put together to one large group.
(§2) From this dominating group, one strain was chosen for the carbon dioxide experiments. Two other strains from another recycled pulp mill were included in the experiments.
(§3) Glass bottles were tempered to 45° C. and CO2 was added to create a carbon dioxide atmosphere. Bacteria from the three isolated strains were added to separate bottles together with a nutrient broth. A first sample representing “0 min” was taken out immediately from each bottle and then at a number of occasions during the next three hours. Each sample was diluted in dilution series with dilution 1/10 in six steps (10^1-10^6) and grown on agar plates. The plates were incubated at 45° C. for two days, after which the number of colonies were counted and related to the dilution.

Strain 2 = experiment: as above; format: cell-based
Description: as §1, §2, §3

Strain 1 = experiment: as above; format: cell-based
Description: as §1, §2, §3

[1] = test system: microbial activity during storage; experiment: Full-scale mill trial, carbon dioxide introduced just prior to the pulp storage tower; details: 1-2 kg CO2/ton pulp just prior to the storage tower, chemical pulp
Description: A mill produced wood-free paper from chemical pulp. At the time of the trials, the mill stored pulp for long periods of time in storage towers prior to the stock preparation. The storage caused problems with bad smell and black spots in the pulp, which was believed to be caused by high microbial activity during storage.
A full-scale trial of treatment with a gaseous inhibitor was performed. Thus, carbon dioxide gas was introduced in an amount of 1-2 kg CO2/ton pulp just prior to the storage tower.

three isolated strains = experiment: Survival under a CO2 atmosphere, average of the three isolated strains; format: cell-based, bacteria; details: for percentage of surviving cells, Average: 45° C.
Description: as §1, §2, §3

`O=C=O` [CO2, carbon dioxide] was tested, and the “percentage of surviving cells” value (Strain 3; Strain 3, 0 min) was 100%, the “percentage of surviving cells” value (Strain 3; Strain 3, 10 min) was 92% and the “percentage of surviving cells” value (Strain 3; Strain 3, 20 min) was 77%. For the same molecule, the “percentage of surviving cells” value (Strain 3; Strain 3, 30 min) was 58%, the “percentage of surviving cells” value (Strain 3; Strain 3, 40 min) was 47% and the “percentage of surviving cells” value (Strain 3; Strain 3, 50 min) was 36%. For the same molecule, the “percentage of surviving cells” value (Strain 3; Strain 3, 60 min) was 67%, the “percentage of surviving cells” value (Strain 3; Strain 3, 80 min) was 44% and the “percentage of surviving cells” value (Strain 3; Strain 3, 100 min) was 42%. For the same molecule, the “percentage of surviving cells” value (Strain 3; Strain 3, 120 min) was 16%, the “percentage of surviving cells” value (Strain 3; Strain 3, 140 min) was 7% and the “percentage of surviving cells” value (Strain 3; Strain 3, 160 min) was 4%. The “percentage of surviving cells” value (Strain 3; Strain 3, 180 min) was 2%, the “percentage of surviving cells” value (Strain 2; Strain 2, 0 min) was 100% and the “percentage of surviving cells” value (Strain 2; Strain 2, 10 min) was 141%. The “percentage of surviving cells” value (Strain 2; Strain 2, 20 min) was 76%, the “percentage of surviving cells” value (Strain 2; Strain 2, 30 min) was 137% and the “percentage of surviving cells” value (Strain 2; Strain 2, 40 min) was 48%. For the same molecule, the “percentage of surviving cells” value (Strain 2; Strain 2, 50 min) was 94%, the “percentage of surviving cells” value (Strain 2; Strain 2, 60 min) was 46% and the “percentage of surviving cells” value (Strain 2; Strain 2, 80 min) was 88%. The “percentage of surviving cells” value (Strain 2; Strain 2, 100 min) was 55%, the “percentage of surviving cells” value (Strain 2; Strain 2, 120 min) was 43% and the “percentage of surviving cells” value (Strain 2; Strain 2, 140 min) was 35%. For the same molecule, the “percentage of surviving cells” value (Strain 2; Strain 2, 160 min) was 41%, the “percentage of surviving cells” value (Strain 2; Strain 2, 180 min) was 24% and the “percentage of surviving cells” value (Strain 1; Strain 1, 0 min) was 100%. The “percentage of surviving cells” value (Strain 1; Strain 1, 10 min) was 75%, the “percentage of surviving cells” value (Strain 1; Strain 1, 20 min) was 34% and the “percentage of surviving cells” value (Strain 1; Strain 1, 30 min) was 73%. The “percentage of surviving cells” value (Strain 1; Strain 1, 40 min) was 50%, the “percentage of surviving cells” value (Strain 1; Strain 1, 50 min) was 61% and the “percentage of surviving cells” value (Strain 1; Strain 1, 60 min) was 59%. The “percentage of surviving cells” value (Strain 1; Strain 1, 80 min) was 39%, the “percentage of surviving cells” value (Strain 1; Strain 1, 100 min) was 16% and the “percentage of surviving cells” value (Strain 1; Strain 1, 120 min) was 18%. For the same molecule, the “percentage of surviving cells” value (Strain 1; Strain 1, 140 min) was 5%, the “percentage of surviving cells” value (Strain 1; Strain 1, 160 min) was 4% and the “percentage of surviving cells” value (Strain 1; Strain 1, 180 min) was 9%. For the same molecule, the “number of black spots in the pulp” value [1] was “reduced”, the “pulp's smell” value [1] was “reduced” and the “percentage of surviving cells, Average” value (three isolated strains; Average of Strains 1-3, 0 min) was 100%. For the same molecule, the “percentage of surviving cells, Average” value (three isolated strains; Average of Strains 1-3, 10 min) was 103%, the “percentage of surviving cells, Average” value (three isolated strains; Average of Strains 1-3, 20 min) was 62% and the “percentage of surviving cells, Average” value (three isolated strains; Average of Strains 1-3, 30 min) was 89%. The “percentage of surviving cells, Average” value (three isolated strains; Average of Strains 1-3, 40 min) was 48%, the “percentage of surviving cells, Average” value (three isolated strains; Average of Strains 1-3, 50 min) was 64% and the “percentage of surviving cells, Average” value (three isolated strains; Average of Strains 1-3, 60 min) was 57%. The “percentage of surviving cells, Average” value (three isolated strains; Average of Strains 1-3, 80 min) was 57%, the “percentage of surviving cells, Average” value (three isolated strains; Average of Strains 1-3, 100 min) was 38% and the “percentage of surviving cells, Average” value (three isolated strains; Average of Strains 1-3, 120 min) was 47%. For the same molecule, the “percentage of surviving cells, Average” value (three isolated strains; Average of Strains 1-3, 140 min) was 16%, the “percentage of surviving cells, Average” value (three isolated strains; Average of Strains 1-3, 160 min) was 16% and the “percentage of surviving cells, Average” value (three isolated strains; Average of Strains 1-3, 180 min) was 12%. For the same molecule, the bacteria survived (three isolated strains; after 2 hours) was “about 50%”, the bacteria survived (three isolated strains; after 3 hours) was “more than 10%” and the bacteria survived (three isolated strains; after approximately 1 hour) was “about 60%”.
